Assay results: US11051515B2, “3-acyl-benzamides and their use as herbicides” (Bayer Aktiengesellschaft, priority 2017, dated 2021)

Key:
VIOTR [1] = experiment: Post-emergence action against VIOTR; format: in vivo, Viola tricolor; details: post-emergence, dosage 80 g/ha
Outline: (§1)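 Weeds grown in sandy loam in greenhouse, treated at one-leaf stage (2–3 weeks after sowing) with WP or EC formulations sprayed as aqueous suspension/emulsion at 600 to […] water with 0.2% wetting agent. Visual rating after about 3 weeks versus untreated controls, as % herbicidal action (100% = plants dead, 0% = like control).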

LOLMU [2] = experiment: Post-emergence action against LOLMU; format: in vivo, Lolium multiflorum; details: dosage 80 g/ha, visual assessment about 3 weeks after treatment vs untreated controls
Protocol: Seeds of monocotyledonous and dicotyledonous weed and crop plants are laid out in sandy loam soil in wood-fiber pots, covered with soil and cultivated in a greenhouse under good growth conditions. 2 to 3 weeks after sowing, the test plants are treated at the one-leaf stage. The compounds of the invention, formulated in the form of wettable powders (WP) or as emulsion concentrates (EC), are then sprayed onto the green parts of the plants in the form of an aqueous suspension or emulsion at a water application rate equating to […], with addition of 0.2% wetting agent. After the test plants have been left to stand in the greenhouse under optimal growth conditions for about 3 weeks, the action of the preparations is assessed visually in comparison to untreated controls (herbicidal action in percent (%): 100% activity=the plants have died, 0% activity=like control plants). […] At the same time, inventive compounds leave Gramineae crops such as barley, wheat, rye, millet/Sorghum, corn or rice virtually undamaged when applied post-emergence, even at high active ingredient dosages. In addition, some substances are also harmless to dicotyledonous crops such as soya, cotton, oilseed rape, sugar beet or potatoes. Some of the compounds according to the invention have high selectivity and are therefore suitable for controlling unwanted vegetation in agricultural crops by the post-emergence method. The data of Tables B18 to B34 below illustrate, in an exemplary manner, the […] herbicidal action of the compounds according to the invention, the herbicidal activity being stated in percent.

STEME [3] = experiment: Pre-emergence action against STEME; format: in vivo, Stellaria media; details: Dosage 320 g/ha, pre-emergence
Outline: (§2)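 Seeds sown in sandy loam in wood-fiber pots and covered with soil. Greenhouse growth; visual damage scored after 3 weeks versus untreated controls (100% = dead, 0% = like control).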

LOLMU [4] = experiment: Pre-emergence action against LOLMU; format: in vivo, Lolium multiflorum; details: dosage 320 g/ha, scored visually after 3 weeks vs untreated controls
Outline: as §2

ECHCG [5] = experiment: Post-emergence action against ECHCG; format: in vivo, Echinochloa crus-galli; details: post-emergence, dosage 80 g/ha, visual assessment about 3 weeks after treatment vs untreated controls
Outline: as §1

ALOMY = experiment: Pre-emergence action against ALOMY; format: in vivo, Alopecurus myosuroides; details: dosage 320 g/ha, pre-emergence, scored visually after 3 weeks vs untreated controls, 100% = plants have died, 0% = like control plants
Outline: as §2

ABUTH [6] = experiment: Pre-emergence action against ABUTH; format: in vivo, Abutilon theophrasti; details: pre-emergence, dosage 320 g/ha, scored visually after 3 weeks vs untreated controls
Outline: as §2

VERPE [7] = experiment: Pre-emergence action against VERPE; format: in vivo, Veronica persica; details: Dosage 320 g/ha, pre-emergence
Outline: as §2

STEME [8] = experiment: Post-emergence action against STEME; format: in vivo, Stellaria media; details: post-emergence, dosage 80 g/ha
Outline: as §1

ABUTH [9] = experiment: Post-emergence action against ABUTH; format: in vivo, Abutilon theophrasti; details: post-emergence, dosage 80 g/ha, visual assessment about 3 weeks after treatment vs untreated controls
Outline: as §1

POLCO [10] = experiment: Pre-emergence action against POLCO; format: in vivo, Polygonum convolvulus; details: Dosage 320 g/ha, pre-emergence
Outline: as §2

AMARE [11] = experiment: Pre-emergence action against AMARE; format: in vivo, Amaranthus retroflexus; details: pre-emergence, dosage 320 g/ha, scored visually after 3 weeks vs untreated controls
Outline: as §2

ECHCG [12] = experiment: Pre-emergence action against ECHCG; format: in vivo, Echinochloa crus-galli; details: pre-emergence, dosage 320 g/ha, scored visually after 3 weeks vs untreated controls
Outline: as §2

SETVI [13] = experiment: Post-emergence action against SETVI; format: in vivo, Setaria viridis; details: post-emergence, dosage 80 g/ha, visual assessment about 3 weeks after treatment vs untreated controls
Outline: as §1

AVEFA [14] = experiment: Pre-emergence action against AVEFA; format: in vivo, Avena fatua; details: dosage 320 g/ha, scored visually after 3 weeks vs untreated controls
Outline: as §2

MATIN [15] = experiment: Pre-emergence action against MATIN; format: in vivo, Matricaria inodora; details: Dosage 320 g/ha, pre-emergence
Outline: as §2

CYPES [16] = experiment: Pre-emergence action against CYPES; format: in vivo, Cyperus esculentus; details: pre-emergence, dosage 320 g/ha, scored visually after 3 weeks vs untreated controls
Outline: as §2

MATIN [17] = experiment: Post-emergence action against MATIN; format: in vivo, Matricaria inodora; details: post-emergence, dosage 80 g/ha, visual assessment about 3 weeks after treatment vs untreated controls
Outline: as §1

AMARE [18] = experiment: Post-emergence action against AMARE; format: in vivo, Amaranthus retroflexus; details: post-emergence, dosage 80 g/ha, visual assessment about 3 weeks after treatment vs untreated controls
Outline: as §1

PHBPU = experiment: Post-emergence action against PHBPU; format: in vivo, Pharbitis purpurea; details: post-emergence, dosage 80 g/ha
Outline: as §1

SETVI [19] = experiment: Pre-emergence action against SETVI; format: in vivo, Setaria viridis; details: pre-emergence, dosage 320 g/ha, scored visually after 3 weeks vs untreated controls
Outline: as §2

VIOTR [20] = experiment: Pre-emergence action against VIOTR; format: in vivo, Viola tricolor; details: Dosage 320 g/ha, pre-emergence
Outline: as §2

CYPES [21] = experiment: Post-emergence action against CYPES; format: in vivo, Cyperus esculentus; details: post-emergence, dosage 80 g/ha, visual assessment about 3 weeks after treatment vs untreated controls
Outline: as §1

VERPE [22] = experiment: Post-emergence action against VERPE; format: in vivo, Veronica persica; details: dosage 80 g/ha
Outline: as §1

AVEFA [23] = experiment: Post-emergence action against AVEFA; format: in vivo, Avena fatua; details: Avena fatua, 504 h; post-emergence, dosage 80 g/ha, visual assessment about 3 weeks after treatment vs untreated controls; read-out: Post-emergence action against AVEFA (herbicidal action in percent)
Outline: as §1

POLCO [24] = experiment: Post-emergence action against POLCO; format: in vivo, Polygonum convolvulus; details: Fallopia convolvulus, 504 h; post-emergence, dosage 80 g/ha
Outline: as §1

CCn1nnnc1NC(=O)c1ccc(C(F)(F)F)c(C(C)=O)c1C [2-14]
80: Post-emergence action against VERPE (VERPE [22])
80%: Post-emergence action against LOLMU (herbicidal action in percent) (LOLMU [2]) | Pre-emergence action against LOLMU (herbicidal activity) (LOLMU [4]) | Pre-emergence action against ALOMY (herbicidal activity in percent) (ALOMY) | Pre-emergence action against POLCO (POLCO [10])
100%: Pre-emergence action against STEME (STEME [3]) | Post-emergence action against ECHCG (herbicidal action in percent) (ECHCG [5]) | Pre-emergence action against ABUTH (herbicidal activity) (ABUTH [6]) | Pre-emergence action against VERPE (VERPE [7]) | Post-emergence action against ABUTH (herbicidal action in percent) (ABUTH [9]) | Pre-emergence action against AMARE (herbicidal activity) (AMARE [11]) | Pre-emergence action against ECHCG (herbicidal activity) (ECHCG [12]) | Pre-emergence action against MATIN (MATIN [15]) | Post-emergence action against MATIN (herbicidal action in percent) (MATIN [17]) | Post-emergence action against AMARE (herbicidal action in percent) (AMARE [18]) | SETVI (Table B8, pre-emergence herbicidal activity) (SETVI [19]) | Pre-emergence action against VIOTR (VIOTR [20])
100: Post-emergence action against VIOTR (VIOTR [1]) | Post-emergence action against STEME (STEME [8])
90: Post-emergence action against PHBPU (PHBPU)
90%: Post-emergence action against SETVI (herbicidal action in percent) (SETVI [13]) | Pre-emergence action against AVEFA (herbicidal activity) (AVEFA [14]) | Pre-emergence action against CYPES (herbicidal activity) (CYPES [16]) | Post-emergence action against CYPES (herbicidal action in percent) (CYPES [21])

CC(=O)c1c(C(F)(F)F)ccc(C(=O)Nc2nnnn2C)c1Br [1-195]
90%: pest or weed control at 80 g/ha (LOLMU [2]; Lolium multiflorum, 504 h, read-out: Post-emergence action against LOLMU (herbicidal action in percent)) | pest or weed control at 320 g/ha (STEME [3]; Stellaria media, 504 h) | pest or weed control at 320 g/ha (LOLMU [4]; Lolium multiflorum, 504 h, read-out: Pre-emergence action against LOLMU (herbicidal activity)) | pest or weed control at 80 g/ha (ECHCG [5]; Echinochloa crus-galli, 504 h, read-out: Post-emergence action against ECHCG (herbicidal action in percent)) | pest or weed control at 320 g/ha (ALOMY; Alopecurus myosuroides, 504 h, read-out: Pre-emergence action against ALOMY (herbicidal activity in percent)) | pest or weed control at 80 g/ha (SETVI [13]; Setaria viridis, 504 h, read-out: Post-emergence action against SETVI (herbicidal action in percent)) | pest or weed control at 80 g/ha (POLCO [24]) | pest or weed control at 80 g/ha (MATIN [17]; Tripleurospermum inodorum, 504 h, read-out: Post-emergence action against MATIN (herbicidal action in percent)) | pest or weed control at 80 g/ha (PHBPU; Ipomoea purpurea, 504 h)
80%: pest or weed control at 80 g/ha (AVEFA [23]) | pest or weed control at 80 g/ha (ABUTH [9]; Abutilon theophrasti, 504 h, read-out: Post-emergence action against ABUTH (herbicidal action in percent)) | pest or weed control at 320 g/ha (POLCO [10]; Fallopia convolvulus, 504 h) | pest or weed control at 80 g/ha (CYPES [21]; Cyperus esculentus, 504 h, read-out: Post-emergence action against CYPES (herbicidal action in percent)) | pest or weed control at 80 g/ha (VERPE [22]; Veronica persica, 504 h)
100%: pest or weed control at 80 g/ha (VIOTR [1]; Viola tricolor, 504 h) | pest or weed control at 320 g/ha (ABUTH [6]; Abutilon theophrasti, 504 h, read-out: Pre-emergence action against ABUTH (herbicidal activity)) | pest or weed control at 320 g/ha (VERPE [7]; Veronica persica, 504 h) | pest or weed control at 80 g/ha (STEME [8]; Stellaria media, 504 h) | pest or weed control at 320 g/ha (AMARE [11]; Amaranthus retroflexus, 504 h, read-out: Pre-emergence action against AMARE (herbicidal activity)) | pest or weed control at 320 g/ha (ECHCG [12]; Echinochloa crus-galli, 504 h, read-out: Pre-emergence action against ECHCG (herbicidal activity)) | pest or weed control at 320 g/ha (AVEFA [14]; Avena fatua, 504 h, read-out: Pre-emergence action against AVEFA (herbicidal activity)) | pest or weed control at 320 g/ha (MATIN [15]; Tripleurospermum inodorum, 504 h) | pest or weed control at 320 g/ha (CYPES [16]; Cyperus esculentus, 504 h, read-out: Pre-emergence action against CYPES (herbicidal activity)) | pest or weed control at 320 g/ha (SETVI [19]; Setaria viridis, 504 h, read-out: SETVI (Table B8, pre-emergence herbicidal activity)) | pest or weed control at 320 g/ha (VIOTR [20]; Viola tricolor, 504 h)
